US6358885B1, “Substituted phenylheterocyclic herbicides” (Mississippi State University, priority 1992, dated 2002)

Assays:
Experiment in all cases: Test G preemergence/postemergence greenhouse plant response rating 0 to 100
[1] = test system: sandbur; format: in vivo, Cenchrus echinatus; settings: 0 to 100 scale
Summary of the method: (§1)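 Greenhouse pots, one species each; non-phytotoxic solvent vehicle. Read-out: visual injury vs untreated, 13–21 DAT. Dash denotes no result.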

[2] = test system: bermudagrass; format: in vivo, Cynodon dactylon; settings: 0 to 100 scale
Summary of the method: as §1

[3] = test system: large crabgrass; format: in vivo, Digitaria sanguinalis; settings: 0 to 100 scale
Summary of the method: as §1

[4] = test system: guineagrass; format: in vivo, Panicum maximum; settings: 0 to 100 scale
Summary of the method: as §1

[5] = test system: alfalfa; format: in vivo, Medicago ativa; settings: 0 to 100 scale
Summary of the method: as §1

[6] = test system: goosegrass; format: in vivo, Eleusine indica; settings: 0 to 100 scale
Summary of the method: as §1

[7] = test system: itchgrass; format: in vivo, Rottboellia exaltata; settings: 0 to 100 scale
Summary of the method: as §1

[8] = test system: common ragweed; format: in vivo, Ambrosia elatior; settings: 0 to 100 scale
Summary of the method: as §1

[9] = test system: peanut; format: in vivo, Arachis hypoagaea; settings: 0 to 100 scale
Summary of the method: as §1

[10] = test system: yellow nutsedge; format: in vivo, Cyperus esculentus; settings: Rate 125 g/ha, 0 to 100 scale
Summary of the method: as §1

[11] = test system: johnsongrass; format: in vivo, Sorghum halepense; settings: 0 to 100 scale
Summary of the method: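 Scoring: visual injury at 13 to 21 days post-application, compared with untreated controls. Planting: one species per pot in greenhouse medium. Dosing: compound in non-phytotoxic solvent, within one day of sowing for preemergence or at 2–4 leaves for postemergence.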

[12] = test system: smooth crabgrass; format: in vivo, Digitaria ischaemum; settings: 0 to 100 scale
Summary of the method: as §1

[13] = test system: broadleaf signalgrass; format: in vivo, Brachiaria plantaginea; settings: 0 to 100 scale
Summary of the method: as §1

[14] = test system: common purslane; format: in vivo, Portulaca oleracea; settings: 0 to 100 scale
Summary of the method: as §1

[15] = test system: annual bluegrass; format: in vivo, Poa annua; settings: 0 to 100 scale
Summary of the method: as §1

[16] = test system: pitted morningglory; format: in vivo, Ipomoea lacunosa; settings: 0 to 100 scale
Summary of the method: as §1

CC(C)Oc1cc(-c2nn3c(c2Cl)CCCC3)c(F)cc1Cl [Compound 21]
Plant response rating, S. Sandbur ([1]; POSTEMERGENCE, Rate 125 g/ha): 0 | Plant response rating, S. Sandbur ([1]; POSTEMERGENCE, Rate 250 g/ha): 0 | Plant response rating, S. Sandbur ([1]; PREEMERGENCE, Rate 125 g/ha): 0 | Plant response rating, S. Sandbur ([1]; PREEMERGENCE, Rate 250 g/ha): 0 | Plant response rating, Bermudagrass ([2]; POSTEMERGENCE, Rate 125 g/ha): 0 | Plant response rating, Bermudagrass ([2]; POSTEMERGENCE, Rate 250 g/ha): 0 | Plant response rating, Bermudagrass ([2]; PREEMERGENCE, Rate 125 g/ha): 20 | Plant response rating, Bermudagrass ([2]; PREEMERGENCE, Rate 250 g/ha): 0 | Plant response rating, Large Crabgrass ([3]; POSTEMERGENCE, Rate 125 g/ha): 0 | Plant response rating, Large Crabgrass ([3]; POSTEMERGENCE, Rate 250 g/ha): 0 | Plant response rating, Large Crabgrass ([3]; PREEMERGENCE, Rate 125 g/ha): 100 | Plant response rating, Large Crabgrass ([3]; PREEMERGENCE, Rate 250 g/ha): 60 | Plant response rating, Guineagrass ([4]; POSTEMERGENCE, Rate 125 g/ha): 0 | Plant response rating, Guineagrass ([4]; POSTEMERGENCE, Rate 250 g/ha): 0 | Plant response rating, Guineagrass ([4]; PREEMERGENCE, Rate 125 g/ha): 100 | Plant response rating, Guineagrass ([4]; PREEMERGENCE, Rate 250 g/ha): 0 | Plant response rating, Alfalfa Var. ([5]; POSTEMERGENCE, Rate 125 g/ha): 0 | Plant response rating, Alfalfa Var. ([5]; POSTEMERGENCE, Rate 250 g/ha): 0 | Plant response rating, Alfalfa Var. ([5]; PREEMERGENCE, Rate 125 g/ha): 0 | Plant response rating, Alfalfa Var. ([5]; PREEMERGENCE, Rate 250 g/ha): 0 | Plant response rating, Goosegrass ([6]; POSTEMERGENCE, Rate 125 g/ha): 0 | Plant response rating, Goosegrass ([6]; POSTEMERGENCE, Rate 250 g/ha): 0 | Plant response rating, Goosegrass ([6]; PREEMERGENCE, Rate 125 g/ha): 100 | Plant response rating, Goosegrass ([6]; PREEMERGENCE, Rate 250 g/ha): 70 | Plant response rating, Itchgrass ([7]; POSTEMERGENCE, Rate 125 g/ha): 0 | Plant response rating, Itchgrass ([7]; POSTEMERGENCE, Rate 250 g/ha): 0 | Plant response rating, Itchgrass ([7]; PREEMERGENCE, Rate 125 g/ha): 60 | Plant response rating, Itchgrass ([7]; PREEMERGENCE, Rate 250 g/ha): 0 | Plant response rating, Cmn Ragweed ([8]; POSTEMERGENCE, Rate 125 g/ha): 0 | Plant response rating, Cmn Ragweed ([8]; POSTEMERGENCE, Rate 250 g/ha): 100 | Plant response rating, Cmn Ragweed ([8]; PREEMERGENCE, Rate 125 g/ha): 50 | Plant response rating, Cmn Ragweed ([8]; PREEMERGENCE, Rate 250 g/ha): 50 | Plant response rating, Peanuts ([9]; POSTEMERGENCE, Rate 125 g/ha): 0 | Plant response rating, Peanuts ([9]; POSTEMERGENCE, Rate 250 g/ha): 0 | Plant response rating, Peanuts ([9]; PREEMERGENCE, Rate 125 g/ha): 0 | Plant response rating, Peanuts ([9]; PREEMERGENCE, Rate 250 g/ha): 20 | Plant response rating, Yellow Nutsedge ([10]; POSTEMERGENCE): 0 | Plant response rating, Yellow Nutsedge ([10]; PREEMERGENCE): 0 | Plant response rating, Johnsongrass ([11]; POSTEMERGENCE, Rate 125 g/ha): 0 | Plant response rating, Johnsongrass ([11]; POSTEMERGENCE, Rate 250 g/ha): 0 | Plant response rating, Johnsongrass ([11]; PREEMERGENCE, Rate 125 g/ha): 30 | Plant response rating, Johnsongrass ([11]; PREEMERGENCE, Rate 250 g/ha): 0 | Plant response rating, Smooth Crabgras ([12]; POSTEMERGENCE, Rate 125 g/ha): 0 | Plant response rating, Smooth Crabgras ([12]; POSTEMERGENCE, Rate 250 g/ha): 0 | Plant response rating, Smooth Crabgras ([12]; PREEMERGENCE, Rate 125 g/ha): 70 | Plant response rating, Smooth Crabgras ([12]; PREEMERGENCE, Rate 250 g/ha): 20 | Plant response rating, Brdlf Sgnlgrass ([13]; POSTEMERGENCE, Rate 125 g/ha): 0 | Plant response rating, Brdlf Sgnlgrass ([13]; POSTEMERGENCE, Rate 250 g/ha): 0 | Plant response rating, Brdlf Sgnlgrass ([13]; PREEMERGENCE, Rate 125 g/ha): 0 | Plant response rating, Brdlf Sgnlgrass ([13]; PREEMERGENCE, Rate 250 g/ha): 0 | Plant response rating, Cmn Purslane ([14]; POSTEMERGENCE, Rate 125 g/ha): 70 | Plant response rating, Cmn Purslane ([14]; POSTEMERGENCE, Rate 250 g/ha): 90 | Plant response rating, Cmn Purslane ([14]; PREEMERGENCE, Rate 125 g/ha): 100 | Plant response rating, Cmn Purslane ([14]; PREEMERGENCE, Rate 250 g/ha): 0 | Plant response rating, Ann Bluegrass ([15]; POSTEMERGENCE, Rate 125 g/ha): 0 | Plant response rating, Ann Bluegrass ([15]; POSTEMERGENCE, Rate 250 g/ha): 0 | Plant response rating, Ann Bluegrass ([15]; PREEMERGENCE, Rate 125 g/ha): 30 | Plant response rating, Ann Bluegrass ([15]; PREEMERGENCE, Rate 250 g/ha): 0 | Plant response rating, Pit Morninglory ([16]; POSTEMERGENCE, Rate 125 g/ha): 0 | Plant response rating, Pit Morninglory ([16]; POSTEMERGENCE, Rate 250 g/ha): 20 | Plant response rating, Pit Morninglory ([16]; PREEMERGENCE, Rate 125 g/ha): 0 | Plant response rating, Pit Morninglory ([16]; PREEMERGENCE, Rate 250 g/ha): 20
